Reference: patent US12109292B2, “Bioflavonoid compositions and their use” (Oraldent Limited, priority 2018, dated 2024)

Experiments:
[1] = tested on: S. mutans; assay: Short exposure assay (bactericidal effect), colony count; assay type: cell-based, Streptococcus mutans; conditions: 0.05%; 10 minutes; 5000 CFU inoculum
Procedure: The short-term antibacterial activity of Citrox was semi-quantitatively assessed in a short exposure assay. A S. mutans culture, diluted in order to contain 5000 Colony Forming Units, was incubated for 10 minutes in presence of the antibacterial substance and extemporarily plated onto a BHI agar plate. Plates were incubated at 37° C. under anaerobe conditions and colony counted. […] Citrox 0.5% reduced the count of CFU to the half (<3000 CFU).

[2] = tested on: Streptococcus mutans; assay: Inhibition zone assay on agar plate; assay type: cell-based; conditions: 48 h at 37° C. anaerobe
Procedure: The antibacterial activity of ε-polylysine was semi-quantitatively assessed in a inhibition zone assay. 0.1 mL of a confluent Streptococcus mutans culture was spread over a Brain Heart Infusion (BHI) agar plate. Filter platelets (5 mm diameter) soaked with 0.01 mL substance were applied on plate. Plates were incubated 48 h at 37° C. under anaerobe conditions. The diameter of outer limit of the inhibition zones were measured, the diameter of the platelet deduced and the half result considered the radius of inhibition rings. Concentrations were tested in triplicate and their results averaged.

[3] = tested on: Escherichia coli; assay: Pre-treatment of high binding plates with Citrox/ε-polylysine, then Escherichia coli growth inhibition (turbidity); assay type: cell-based
Procedure: High Binding plates were pre-treated with 0.1 mL of pure Citrox/ε-Polylysine solutions incubated 60′ at room temperature. The concentrations of Citrox range from 0.06% to 4%. The ε-Polylysine concentrations range from 30 mg/L to 120 mg/L. The wells have been emptied and rinsed with 0.2 mL bi-distilled water. 0.2 mL of a diluted Escherichia coli culture (turbidity: 5 m OD at 600 nm) were given to the pre-treated wells and incubated for 3 hours at 37° C. Turbidity were measured at 600 nm and percentage of growth inhibition in comparison to untreated well calculated (FIG. 1).

[4] = tested on: Escherichia coli; assay: Direct exposure of Escherichia coli mini cultures, minimal inhibitory concentration by turbidity; assay type: cell-based; conditions: E. coli, 5 hours at 37° C., extrapolated from FIG. 2
Procedure: Growth inhibition was monitored by measuring turbidity of mini cultures after 5 hours of aerobe incubation at 37° C. under agitation. Solutions were diluted to the half in cascade.

OO [Water peroxide, reference compound]
colony formation after short exposure [1]: complete absence of colony formation
Radius of inhibition rings ([2]; 0.1%): 1.5 mm
Radius of inhibition rings ([2]; 1%): 5 mm

ε-Polylysine
highest ε-polylysine concentration that does not affect significantly the antibacterial effect of Citrox pretreatment [3]: 30 mg/L
effect of plate-absorbed substance on growth of bacteria in suspension ([3]; high binding plate, substance absorbed onto solid surface): does not affect the growth of bacteria in suspension
Minimal inhibitory concentration (MIC) [4]: 4 µg/mL
Radius of inhibition rings ([2]; 10 mg/L): 0.5 mm
Radius of inhibition rings ([2]; 100 mg/L): 2.5 mm
Radius of inhibition rings ([2]; 1000 mg/L): 6.5 mm
